Experimental data taken from US10220040B2, “Compounds, compositions and methods useful for cholesterol mobilization” (Cerenis Therapeutics Holding SA, priority 2010, dated 2019).

What was measured:
New Zealand rabbits = assay: Plaque regression in high-cholesterol diet fed New Zealand rabbits; format: in vivo, rabbit
Protocol: FIG. 20A-M: Plaque regression in rabbits treated with Compound IIa. New Zealand rabbits (n=15) with atherosclerotic plaques developed after 2 months of high-cholesterol diet, were treated with Compound IIa at 30, 100 and 300 μg/kg once a day by oral gavage for 4 weeks. FIG. 20A: lipids extracted from aortas were analyzed by GC/MS for cholesterol concentration. Dark bars, unesterified cholesterol; superimposed gray bars, total cholesterol. *p<0.05. FIG. 20B, FIG. 20C and FIG. 20D: Plasma VLDL cholesterol, LDL cholesterol and HDL cholesterol were resolved as described in FIG. 2. The results are expressed as the percentage from pre-dose. FIG. 20E: apoB concentration in plasma was determined by Western blot analysis. FIG. 20F: triglycerides were measured in the plasma using the kit from Biolabo. FIG. 20G: the bile acids concentrations in liver were determined using an enzymatic kit. FIG. 20H and FIG. 20K: hematoxylin/eosin staining of aortas from rabbits dosed with vehicle (FIG. 20H) or Compound IIa at 300 μg/kg (FIG. 20K). FIG. 20I and FIG. 20L: smooth muscle cells staining of aortas from rabbits dosed with vehicle (FIG. 20I) or Compound IIa at 300 μg/kg (FIG. 20L). FIG. 20J and FIG. 20M: macrophages and monocytes staining of aortas from rabbits dosed with vehicle (FIG. 20J) or Compound IIa at 300 μg/kg (FIG. 20M).
FIG. 21A-F: Functionality of plasma from high-cholesterol diet fed rabbits treated with Compound IIa. FIG. 21A: ApoA-I concentration in plasma was measured by SELDI-TOF analysis. Purified ApoA-I from homo-sapiens (MWSELDI=28083 Da) was used as a reference for determination of rabbit ApoA-I (MWSELDI=27838 Da) concentration. The results are expressed as the percentage from pre-dose. FIG. 21B: ApoA-I mRNA level was determined using the QPCR technique. Note the overall decrease in the HDL particle size of treated animals. FIG. 21C; HDL from rabbit plasma were separated according to the size of the different HDL particles using the Lipoprint® system. The data were expressed as the percentage for each HDL subpopulation set to the HDL population in the pre-dose animals. Two main HDL particle sub-populations were quantified (high and intermediate—dark and gray bars respectively). FIG. 21D: example of lipoprotein profiles of rabbit treated with vehicle (gray line) and with Compound IIa (300 μg/kg, dark line) using the Lipoprint® separation technique. FIG. 21E and FIG. 21F: determination of cholesterol efflux capacity of plasma and rabbit HDL, respectively, using pre-loaded [^3H]-cholesterol-oxLDL macrophages. The results are expressed as a percentage of cholesterol efflux. *p<0.05, **p<0.005.
After 2 months of High Cholesterol Diet feeding (0.5% cholesterol) and a wash-out period of 2 weeks, the animals were treated (by oral gavage) once day with Compound IIa at 30, 100 and 300 μg/kg for 4 weeks. Blood samples were collected before the dose administration on day 0 and after 4 weeks of administrations of Compound IIa. After final bleeding, the liver, gallbladder, heart, thoracic and abdominal aorta from heart (left ventricle) to iliac arteries were sampled.
Rabbit aortas were fixed in neutral formalin buffer and embedded in paraffin. Longitudinal 3 μm sections were stained with Hematoxylin-Eosin-Saffron for histology analysis. The tissue sections were deparaffinized and incubated in protein-free block to inhibit the nonspecific binding of primary monoclonal antibodies used for the immunostaining of rabbit monocytes and macrophages (RAM11 obtained from Dako Corp. 1:100 dilution) and smooth muscle cell-specific actin (HHF35 obtained from Dako Corp. 1:100 dilution). Secondary biotinylated […] antibody was used at 1:300 dilution (Dako).
The issue of whether stimulation of the P2Y13r pathway could affect the regression of atherosclerosis pre-induced in the high-cholesterol diet fed rabbits was also addressed. […]

[1] = tested on: P2Y13 knock-down Hepa 1-6 cells; assay: HDL uptake on P2Y13 knock-down Hepa 1-6 cells; format: cell-based, mouse; conditions: in presence of Compound IIa (1 μM); doxycycline 72 hours; p<0.005
Protocol: FIG. 15: HDL uptake on P2Y13 knock-down Hepa 1-6 cells. Hepa 1-6 cells transduced with lentiviral particles coding the P2Y13 shRNA were induced by the addition of doxycycline for 72 hours. Cells were incubated for 10 min at 37° C. with 75 μg/ml ^3H cholesterol ether HDL and Compound IIa (1 μM). Data are expressed as the percentage of internalized radioactivity with respect to the control value (set as […]).*p<0.05, **p<0.005.
In order to relate the specific P2Y13 HDL uptake to the illustrative compounds of the invention, a knock-down P2Y13 in a mouse liver cell line (Hepa 1-6) was investigated. Lentiviral particles coding for the mouse P2Y13 shRNA and inducible by the addition of doxycycline onto the cells (pTRIPZ vector from Open Biosystem) were used. In presence of doxycycline, a decrease of the P2Y13 mRNA (FIG. 11) was observed. The uptake of HDL on this cell line was measured in the presence and the absence of Compound IIa and doxycycline (FIG. 12). A significant decrease of HDL uptake (8.5%) was observed when the cells were treated with doxycycline (group vehicle—p<0.05).
Transduced Hepa 1-6 cells were plated at 300,000 cells/well in 6×-well plates. […]
The lentiviral production in HEK 293T and authorization for lentiviral production was obtained by Vectalys. […] 24 hours after transduction, the number of cells was counted. […]

[2] = orally, up to 0.3 mg/kg for 4 weeks

CN(C)c1ncc(CN2CCC(c3cc(O)nc(N4CCOCC4)n3)CC2)cn1 [Compound IIa, 6-[1-(2-Dimethylaminopyrimidin-5-ylmethyl)-piperidin-4-yl]-2-morpholin-4-yl-pyrimidin-4-ol]
regression of atherosclerotic plaques in aorta (decrease of cholesterol content of the entire artery) (New Zealand rabbits; orally, doses up to 0.3 mg/kg for 4 weeks): 30% | HDL cholesterol and rabbit apoA-I (HPLC, SELDI-TOF) (New Zealand rabbits; [2]): trend towards an increase | VLDL and LDL cholesterol (New Zealand rabbits; [2]): decreased slightly | pre-established atherosclerotic plaques in aortas of rabbits fed with cholesterol chow (New Zealand rabbits; summary statement): induced the regression | apoA-I mRNA expression in the liver (New Zealand rabbits; treated rabbits): increase | bile acid content in the liver (New Zealand rabbits; treated rabbits): increased | mRNA expressions of LDL receptors and SR-BI in the liver (QPCR) (New Zealand rabbits; treated rabbits): No change | plasma apoA-I (New Zealand rabbits; treated rabbits): increase | decrease of HDL uptake when cells were treated with doxycycline (P2Y13 knock-down) [1]: 17.5%
